Earlier results in patent US20110136157A1, “Copper regulation evaluation and therapy” (priority 2005, published 2011).
Where two headings read alike, the source gives them in different places.

Tests used:
[1] = system: Wilson's disease patients; details: long-term use

Row | Structure (SMILES) | solubility (alcohol) | solubility (water) | long-term or major side effects [1]
1 | CC(C)(S)[C@@H](N)C(=O)O [Penicillamine, 3-mercapto-D-valine] | slightly soluble in alcohol | freely soluble in water | –
2 | CC(=O)[O-].CC(=O)[O-].[Zn+2] [Zinc acetate] | – | – | has not shown any long-term or major side effects
